{"source": "BindingDB's records for doi:10.7270/Q2HT2MVZ", "about": "(Burnham Center For Chemical Genomics, 2011)", "molecular_target": "T1, Sentrin-specific protease 8 (Homo sapiens, UniProt Q96LD8)", "T1 sequence (Q96LD8 whole entry)": "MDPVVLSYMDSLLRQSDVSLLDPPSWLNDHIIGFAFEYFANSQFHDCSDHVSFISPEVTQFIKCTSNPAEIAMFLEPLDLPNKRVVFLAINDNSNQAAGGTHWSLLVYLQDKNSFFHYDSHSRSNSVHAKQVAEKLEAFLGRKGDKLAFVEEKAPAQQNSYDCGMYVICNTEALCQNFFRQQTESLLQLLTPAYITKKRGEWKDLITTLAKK", "test": "inhibition of sentrin protease 8 – biochemical, luminescence, set 2, SAR follow-up (AID 588601)"}
{"compound": "CCOC1=CC(=CC(C#N)c2nc(-c3ccc(C)cc3)no2)C=C(Cl)C1=O", "note": "(stereo unspecified)", "values": [{"measurement": "IC50", "result": "> 99", "unit": "µM"}]}
